{
  "source": "patent US6420570B1",
  "about": "“Psoralen compounds” (priority 1993, dated 2002)",
  "key": {"R17 [1]": {"test_system": "R17", "assay": "R17 bacteriophage inactivation screen, varying compound concentration", "format": "cell-based", "conditions": "starting titer approx. 7.1 logs", "method": "The assay used to predict pathogen inactivation efficiency and to determine nucleic acid binding of the photoreactive binding compounds of the present invention was that in which a bacteriophage, R17, in solution with the desired substrate was irradiated. The ability of the phage to subsequently infect bacteria and inhibit their growth was measured. The bacteriophage was selected for its relatively accessible nucleic acid such that the culture growth inhibition would accurately reflect nucleic acid damage by the test compounds. The bacteriophage assay for nucleic acid binding to test compounds offers a safe and inexpensive procedure to identify compounds likely to display efficient pathogen inactivation. […] An aliquot (0.5 mL) was transferred to a 1.5 mL, snap-top polyethylene tube. An aliquot (0.004-0.040 mL) of the test compound stock solution prepared in water, ethanol or dimethylsulfoxide at 0.80-8.0 mM was added to the tube. Compounds were tested at concentrations between 4 μM and 320 μM. (AMT is commercially available from HRI, Inc., Concord, Calif.; 8-MOP is commercially available from Sigma, St. Louis, Mo.). The tubes were placed in a light device as described in EXAMPLE 1 and irradiated for between 1 and 10 minutes. […] To make the dilutions, a 0.100 mL aliquot of the irradiated solution of phage and test compound was added to the first dilution tube of 0.4 mL of media then 0.020 mL of this solution was added to the second tube of 0.5 mL medium (1:25). The second solution was then diluted serially (1:25) into the remaining tubes. […] After the top agar hardened, the plates were incubated at 37° C. overnight. The plaque forming units were then counted the following morning and the titer of the phage remaining after phototreatment was calculated based on the dilution factors. The following controls were run: the “phage only” in which phage was not treated with test compound and not irradiated (listed as “starting titer” in the tables below); the “UV only” in which the phage was irradiated in the absence of test compound; and the “dark” control in which the phage/test compound solution was not irradiated before it was diluted and plated."}, "cell-free virus (HIV)": {"test_system": "cell-free virus (HIV)", "format": "cell-based", "conditions": "1 minute irradiation", "experimental": "Pathogen inactivation efficiency of several compounds of the present invention was evaluated by examining the ability of the compounds to inactivate cell-free virus (HIV). Inactivation of cell-free HIV was performed as follows.\nAs in the R17 assay, small aliquots of the compounds listed in TABLES 8 and 9, below, at the concentrations listed in the table, were added to stock HIV-1 to a total of 0.5 mL. The stock HIV (10^5-10^7 plaque forming units/mL) was in DMEM/15% FBS. […] Controls included HIV-1 stock only, HIV-1 plus UVA only, and HIV-1 plus the highest concentration of each psoralen tested, with no UVA. Post irradiation, all samples were stores frozen at −70° C. until assayed for infectivity by a microtiter plaque assay. Aliquots for measurement of residual HIV infectivity in the samples treated with a compound of the present invention were withdrawn and cultured.\nResidual HIV infectivity was assayed using an MT-2 infectivity assay. […] The assay medium was 85% DMEM (with a high glucose concentration) containing 100 μg of streptomycin, 100 U of penicillin, 50 μg of gentamicin, and 1 μg of amphotericin B per mL, 15% FBS and 2 μg of Polybrene (Sigma Chemical Co., St. Louis, Mo.) per mL. Test and control samples from the inactivation procedure were diluted in 50% assay medium and 50% normal human pooled plasma. The samples were serially diluted directly in 96-well plates (Corning Glass Works, corning, N.Y.). The plates were mixed on an oscillatory shaker for 30 seconds and incubated at 37° C. in a 5% CO2 atmosphere for 1 to 18 hours. […] After an additional 1 hour of incubation at 37° C. in 5% CO2, 0.075 mL of assay medium containing 1.6% SeaPlaque agarose (FMC Bioproducts, Rockland, me.) and prewarmed to 38.5° C. was added to each well. The plates were kept at 37° C. for a few minutes until several plates had accumulated and then centrifuged in plate carriers at 600×g for 20 minutes in a centrifuge precooled to 10° C. In the centrifuge, cell monolayers formed prior to gelling of the agarose layer. The plates were incubated for 5 days at 37° C. in 5% CO2 and stained by the addition of 0.05 mL of 50 μg/mL propidium iodide (Sigma Chemical Co.) in phosphate-buffered saline (pH 7.4) to each well. After 24 to 48 hours, the red fluorescence-stained microplaques were visualized by placing the plates on an 8,000 μW/cm^2 304 nm UV light box (Fotodyne, Inc., New Berlin, Wis.). The plaques were counted at a magnification of ×20 to ×25 through a stereomicroscope. “n” represents the number of runs for which the data point is an average."}, "TA1537": {"test_system": "TA1537", "assay": "Ames assay, dark mutagenicity, strain TA1537", "method": "(§1) In this example the compounds of the present invention are tested for their dark mutagenicity using an Ames assay. The procedures used for the Salmonella mutagenicity test as described in detail by Maron and Ames were followed exactly. Maron, D. M. and B. N. Ames, Mutation Research 113:173 (1983). A brief description for each procedure is given here. The tester strains TA97a, TA98, TA100, TA102, TA1537 and TA1538 were obtained from Dr. Ames. TA97a, TA98, TA1537 and TA1538 are frameshift tester strains. TA100 and TA102 are base-substitution tester strains. Upon receipt each strain was cultured under a variety of conditions to confirm the genotypes specific to the strains.\n(§2) The first tests done with the strains were to determine the range of spontaneous reversion for each of the strains. With each mutagenicity experiment the spontaneous reversion of the tester strains to histidine independence was measured and expressed as the number of spontaneous revertants per plate. This served as the background controls.\n(§3) For all experiments, the pre-incubation procedure was used. In this procedure one vial of each tester strain was thawed and 20 μL of this culture was added to 6 mL of Oxoid Nutrient Broth #2. This solution was allowed to shake for 10 hours at 37° C. In the pre-incubation procedure, 0.1 mL of this overnight culture was added to each of the required number of sterile test tubes. To half of the tubes 0.5 mL of a 10% S-9 solution containing Aroclor 1254 induced rat liver extract (Molecular Toxicology Inc., Annapolis, MD), and MgCl2, KCl, glucose-6-phosphate, NADP, and sodium phosphate buffer (Sigma, St. Louis. Mo.) were added. To the other half of the tubes 0.5 mL of 0.2M sodium phospate buffer, pH 7.4, was used in place of the S-9 mixture (the -S9 samples) Finally 0.1 mL of the test solution containing either 0.0.1, 0.5, 1, 5, 10, 50, 100, 250, or 500 μg/mL of the test compound was added. The 0.7 mL mixture pre-incubated while shaking for 20 minutes at 37° C. After shaking, 2 mL of molten top agar supplemented with histidine and biotin were added to the 0.7 mL mixture and immediately poured onto a minimal glucose agar plate (volume of base agar was 20 ml.). The top agar was allowed 30 minutes to solidify and then the plates were inverted and incubated for 44 hours at 37° C. After incubation the number of revertant colonies on each plate were counted. […] (“n” represents the number of replicates performed for each data point.)\n(§4) Maron and Ames (1983) describe the conflicting views with regard to the statistical treatment of data generated from the test."}, "R17 [2]": {"test_system": "R17", "assay": "R17 inactivation at constant concentration, varying doses of UV light", "format": "cell-based, bacteriophage R17", "conditions": "UV doses 1.0 to 3.0 J/cm^2, FIGS. 11-17", "method": "Compounds of the present invention were also tested at a constant concentration for varying doses of UV light. Three sets of 1.5 mL tubes were prepared containing 0.6 mL aliquots of R17 in DMEM (prepared as described above). The compound tested was added at the desired concentration and the samples were vortexed. The samples were then irradiated at intervals of 1.0 J/cm^2, until 3.0 J/cm^2 was reached. Between each 1.0 J/cm^2 interval, 100 μL was removed from each sample and placed in the first corresponding dilution tube, then five sequential dilutions were performed for each compound tested, at all 3 irradiation doses, as described above in this example.\nThen 50 μL of Hfr 3000 bacteria was added to each tube, 3 mL of top agar was added and the tube contents were vortexed. The contents of each tube was poured into its own LB plate and the plates were incubated overnight at 37° C. Plaques were counted by visual inspection the following morning."}, "[3]": {"test_system": "Salmonella tester strains", "assay": "Ames assay, dark mutagenicity, overall over tester strains", "conditions": "base-substitution tester strains TA100 and TA102", "method": "as §1, §2, §3, §4"}, "TA1538": {"test_system": "TA1538", "assay": "Ames assay, dark mutagenicity, strain TA1538", "method": "as §1, §2, §3, §4"}, "TA100": {"test_system": "TA100", "method": "as §1, §2, §3, §4"}, "[4]": {"conditions": "Table 8, HIV starting titer approximately 5 logs"}, "[5]": {"conditions": "Table 9, HIV starting titer approximately 5.4 logs"}},
  "note": "Counter-ions that a name gives are not always drawn. Like-named read-outs stand apart in the source and are kept apart here.",
  "data": [
    {"smiles": "Cc1oc2c(C)c3oc(=O)cc(C)c3cc2c1CNCCCCN", "note": "[Compound 6, 4′-(6-Aminohexyl-2-aza)-4,5′,8-trimethylpsoralen Dihydrochloride]", "values": [
      {"measurement": "R17 log kill 16 uM", "setting": "R17 [1]; Table 6, 1 minute irradiation = 1.2 J/cm^2", "result": ">6.1", "unit": "log"},
      {"measurement": "R17 log kill 32 uM", "setting": "R17 [1]; Table 6, 32 uM, 1 minute irradiation = 1.2 J/cm^2", "result": ">6.1", "unit": "log"},
      {"measurement": "R17 log kill 64 uM", "setting": "R17 [1]; Table 6, 64 uM, 1 minute irradiation = 1.2 J/cm^2", "result": ">6.1", "unit": "log"},
      {"measurement": "R17 log kill 8 uM", "setting": "R17 [1]; Table 7, 8 uM, 1 minute irradiation", "result": ">6", "unit": "log"},
      {"measurement": "R17 log kill 16 uM", "setting": "R17 [1]; Table 7, 1 minute irradiation", "result": ">6", "unit": "log"},
      {"measurement": "HIV Log Kill 16 μM", "setting": "cell-free virus (HIV); [4]", "result": 2.0, "unit": "log"},
      {"measurement": "HIV Log Kill 32 μM", "setting": "cell-free virus (HIV); [4]", "result": 3.1, "unit": "log"},
      {"measurement": "HIV Log Kill 64 μM", "setting": "cell-free virus (HIV); [4]", "result": ">3.8", "unit": "log"},
      {"measurement": "HIV Log Kill 16 μM", "setting": "cell-free virus (HIV); [5]", "result": 2.1, "unit": "log"},
      {"measurement": "HIV Log Kill 32 μM", "setting": "cell-free virus (HIV); [5]", "result": 3.2, "unit": "log"},
      {"measurement": "HIV Log Kill 64 μM", "setting": "cell-free virus (HIV); [5]", "result": ">2.8", "unit": "log"},
      {"measurement": "revertant colonies per plate", "setting": "TA1537; TA1537 +S9, 10 μg/plate", "result": "−1"},
      {"measurement": "revertant colonies per plate", "setting": "TA1537; TA1537 +S9, 50 μg/plate", "result": 17},
      {"measurement": "revertant colonies per plate", "setting": "TA1537; TA1537 +S9, 250 μg/plate", "result": 99},
      {"measurement": "revertant colonies per plate", "setting": "TA1537; TA1537 +S9, 500 μg/plate", "result": 369},
      {"measurement": "dose showing a response", "setting": "TA1537; TA1537, in the presence of S9", "result": 50, "unit": "μg/plate"},
      {"measurement": "revertant colonies per plate", "setting": "TA1537; TA1537 −S9, 10 μg/plate", "result": 141},
      {"measurement": "revertant colonies per plate", "setting": "TA1537; TA1537 −S9, 50 μg/plate", "result": 2010},
      {"measurement": "revertant colonies per plate", "setting": "TA1537; TA1537 −S9, 100 μg/plate", "result": 795},
      {"measurement": "revertant colonies per plate", "setting": "TA1537; TA1537 −S9, 250 μg/plate", "result": 228},
      {"measurement": "revertant colonies per plate", "setting": "TA1537; TA1537 −S9, 500 μg/plate", "result": 43},
      {"measurement": "R17 inactivation compared with AMT", "setting": "R17 [2]", "result": "more efficient at inactivating R17 than was AMT"},
      {"measurement": "base-substitution mutagenicity", "setting": "[3]", "result": "no base substitution mutagenicity"},
      {"measurement": "revertant colonies per plate", "setting": "TA1538; TA1538 +S9, 5 μg/plate", "result": 0},
      {"measurement": "revertant colonies per plate", "setting": "TA1538; TA1538 +S9, 10 μg/plate", "result": 8},
      {"measurement": "revertant colonies per plate", "setting": "TA1538; TA1538 −S9, 5 μg/plate", "result": "−5"},
      {"measurement": "revertant colonies per plate", "setting": "TA100; TA100 +S9, 5 μg/plate", "result": 12},
      {"measurement": "revertant colonies per plate", "setting": "TA100; TA100 +S9, 10 μg/plate", "result": "−5"},
      {"measurement": "revertant colonies per plate", "setting": "TA100; TA100 −S9, 5 μg/plate", "result": "−32"},
      {"measurement": "revertant colonies per plate", "setting": "TA100; TA100 −S9, 10 μg/plate", "result": 3}
    ]}
  ]
}
